Results reported in PubChem BioAssay AID179 (DTP/NCI, 2004).
Several values for one entry are separate records, joined by “and”; a condition that tells them apart may be missing. Equal entries are not always repeated. Activity calls are given as the source filed them.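 How the source made its calls: active means compounds giving half or more protection of infected cells from virus-caused growth loss, again on retest; inactive means the rest.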 Where a SMILES comes first, the peptide text is derived from it. [ ]: non-standard residue; d: D form. The star is where a group is joined. ξ: configuration not given here. ξF = NC(Cc1ccccc1)C(=O)O; Cbz = O=C(OCc1ccccc1)*; Aib = CC(C)(N)C(=O)O

Test system: CEM cells HIV-1 protection, formazan growth assay
Assay: NCI AIDS Antiviral Assay
Details: for IC50: measured here: growth of uninfected CEM cells
In short: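 Category rules: moderately active means at least 50% protection on retest, and confirmed active means 100% protection reproducibly. The underlying data came from a formazan growth assay in HIV-1-infected CEM cells.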

SMILES: CC(C)=CCC[C@@H](C)C1=C(N)C(O)=C(C)C(=O)C1=O
- EC50: > 200 µM
- IC50: 13.5 µM

SMILES: CCCCN1C(CO)C(O)C(O)C(O)C1CO (stereo not drawn)
- EC50: > 200 µM
- IC50: > 200 µM

SMILES: Clc1ccc(NC2=NCCN=C(Nc3ccc(Cl)cc3)SS2)cc1
- EC50: > 200 µM
- IC50: 22.9 µM

SMILES: CC1C(=O)C(C)C(c2ccco2)N(N=O)C1c1ccco1 (stereo not drawn)
- EC50: > 234 µM
- IC50: 132 µM

SMILES: COc1cc2ccnc([C@@H](OC(=O)c3ccccc3)c3ccc(OC)c(OC)c3OC)c2cc1OC
- outcome: inactive

SMILES: CC[N+]1(CC)CC[N+]2(CCCC(C)CC2)CC1 (stereo not drawn)
- outcome: inactive

SMILES: O=c1[nH]c(=O)n(C2CC(O)C(CO)O2)c2nc3ccc4ccccc4c3nc12 (stereo not drawn)
- EC50: > 100 µM
- IC50: 13.2 µM

SMILES: CC1=CC2(C)C=C(C)C3(OC(c4ccccc4)=C(C#N)C3=N2)C1=O (stereo not drawn)
- EC50: > 70.8 µM
- IC50: 34.7 µM

SMILES: Cc1ccc(N(C(=[As]c2ccccc2)C(C)(C)C)[Si](C)(C)C)cc1 (stereo not drawn)
- EC50: > 18.2 µM
- IC50: > 18.2 µM

SMILES: O=C(N/N=C/c1ccco1)c1ccc(OCc2nc3ccccc3[nH]2)cc1
- EC50: > 200 µM
- IC50: 83.2 µM

SMILES: O=S1(=O)c2ccccc2N(c2ccccc2)C2=NCCN21
- EC50: > 120 µM
- IC50: > 120 µM

SMILES: CC(C)(C)SSC(C)(C)C
- EC50: > 200 µM
- IC50: > 200 µM

SMILES: O=c1c2ccccc2nnn1N1CCOCC1
- EC50: > 81.3 µM
- IC50: > 81.3 µM

SMILES: Cc1cc2c(cc1Cl)SC(NNC(=O)c1ccncc1)=NS2(=O)=O
- EC50: > 200 µM
- IC50: > 200 µM

SMILES: COc1ncc(C#CC(=O)c2ccccc2)c(OC)n1
- EC50: > 2 µM
- IC50: 0.331 µM

SMILES: CCOC(C)O[C@H]1C(=O)OCC1(C)C (stereo partly drawn)
- EC50: 77.6 µM
- IC50: > 200 µM

SMILES: NC(=O)N1N=C2c3ccccc3CC[C@@H]2C1c1ccccc1 (stereo partly drawn)
- outcome: inactive

SMILES: COc1cc(-c2nn3c(C)c(-c4ccccc4)nc3s2)cc(OC)c1OC
- EC50: 178 µM
- IC50: > 200 µM

SMILES: COC(=O)CCC(=O)c1ccc2c(c1)CCC2
- EC50: > 200 µM
- IC50: > 200 µM

SMILES: CC(C)=C1C2C(C13C(=O)OC(C)(C)OC3=O)C2(C)C (stereo not drawn)
- EC50: > 490 µM
- IC50: > 490 µM

SMILES: CN(/N=C/C=N/N(C)C1=NCCCN1)C1=NCCCN1
- EC50: 110 µM
- IC50: > 200 µM

SMILES: CC1=Nc2ccccc2C12C(c1ccccc1)CC(=O)N1c3ccccc3CC12 (stereo not drawn)
- EC50: > 33.9 µM
- IC50: > 33.9 µM

SMILES: O=c1c(Cl)c(Cl)cnn1CCCl
- EC50: > 1100 µM
- IC50: 1.29 µM

SMILES: CCn1cc(C(=O)O)c(=O)c2cc(F)c(-n3cccc3)cc21
- outcome: inactive

SMILES: CC(=O)C1C(=O)C(=O)N(c2ccccc2C(C)C)C1=O (stereo not drawn)
- outcome: inactive

SMILES: CC(NC(=O)N(C)C)NC(=O)N(C)C
- outcome: inactive

SMILES: Clc1ccc(C2=NN(c3ccccc3)C3c4cc(Br)ccc4OCC23)cc1 (stereo not drawn)
- EC50: > 11.7 µM
- IC50: > 11.7 µM

SMILES: CCc1c(Cc2cc(C)cc(C)c2)n(COCCSc2ccccc2)c(=O)[nH]c1=O
- EC50: 0.49 µM
- IC50: 15.5 µM

SMILES: Cc1ccc(S(=O)(=O)N/N=C2/C3CC4CCC2C4C3)cc1 (stereo not drawn)
- EC50: > 200 µM
- IC50: > 200 µM

SMILES: Clc1ccc(SC(/C=C/NNC2=NC(c3ccccc3)C(c3ccccc3)=NN2)c2ccccc2)cc1 (stereo not drawn)
- EC50: > 7.24 µM
- IC50: 5.62 µM

SMILES: Nn1c(SSSSc2nnc(-c3ccccc3)n2N)nnc1-c1ccccc1
- EC50: > 200 µM
- IC50: > 200 µM

SMILES: COC(=O)CCC1=C(C)c2cc3[n-]c(cc4nc(cc5[n-]c(cc1n2)c(CCC(=O)OC)c5C)C(C(C)=O)=C4C)c(C(C)=O)c3C.[Ni+2]
- EC50: > 100 µM
- IC50: > 100 µM

SMILES: C[S+](C)C1(c2ccccc2)C(=O)c2ccccc2C1=O
- EC50: > 575 µM
- IC50: > 575 µM

SMILES: COC(=O)c1nn(C(=N)c2ccc(Cl)cc2)c2c1CCCCC2
- EC50: > 380 µM
- IC50: > 380 µM

SMILES: CCOC(=O)C1C(=O)CC1(C)C (stereo not drawn)
- EC50: > 200 µM
- IC50: > 200 µM

SMILES: COc1ccc(/C=C/C(=O)c2cc(C(C)(C)C)c(O)c(C(C)(C)C)c2)cc1
- EC50: > 10.2 µM
- IC50: 5.01 µM

SMILES: C[C@@H]1C[C@H](O)[C@]2(O)O[C@@H]3C[C@@]4(C=O)[C@@H](CC=C5[C@@H]4CC[C@]4(C)[C@@H](C6=CC(=O)OC6)CC[C@]54O)C[C@H]3O[C@@H]2O1
- EC50: > 0.1 µM
- IC50: 0.0138 µM

SMILES: Cc1cn(C2CC(N(C)O)C(CO)O2)c(=O)[nH]c1=O (stereo not drawn)
- EC50: 31.6 µM and > 200 µM
- IC50: > 200 µM and 33.1 µM

SMILES: FC(F)(F)c1ccc2c(c1)N(CCCN1CCN(C3CC3)CC1)c1ccccc1S2
- EC50: > 200 µM
- IC50: 33.1 µM

SMILES: CCOC(=O)CNC(=O)C(Cc1ccccc1)NC(=O)C(C)(C)NC(=O)OCc1ccccc1 (stereo not drawn) (Cbz-[Aib]-[ξF]-Gly-OEt)
- EC50: > 200 µM
- IC50: 95.5 µM

SMILES: Cn1c(N)c(N)c(=O)[nH]c1=O
- EC50: > 200 µM
- IC50: 162 µM

SMILES: CCOC(=O)c1c(NC(=O)C(F)(F)F)[nH]c(SSc2[nH]c(NC(=O)C(F)(F)F)c(C(=O)OCC)c2C(=O)OCC)c1C(=O)OCC
- EC50: > 89.1 µM
- IC50: 4.27 µM

SMILES: Cc1ccc(C[N+](C)(C)c2ccccc2)o1
- EC50: > 724 µM
- IC50: 102 µM

SMILES: NCCCNCCCCN1CCOC1=O
- EC50: > 200 µM
- IC50: 50.1 µM

SMILES: O=c1[nH]c2c(O)cccc2c2cc3c(c(O)c12)OCO3
- outcome: inactive
